The values below come from ChEMBL document CHEMBL2390816, “Structure-based optimization of oxadiazole-based GSK-3 inhibitors” (Eur J Med Chem, 2013).

One data set addresses T1, Aurora kinase A (Homo sapiens, UniProt O14965).
T1 sequence (O14965 whole entry): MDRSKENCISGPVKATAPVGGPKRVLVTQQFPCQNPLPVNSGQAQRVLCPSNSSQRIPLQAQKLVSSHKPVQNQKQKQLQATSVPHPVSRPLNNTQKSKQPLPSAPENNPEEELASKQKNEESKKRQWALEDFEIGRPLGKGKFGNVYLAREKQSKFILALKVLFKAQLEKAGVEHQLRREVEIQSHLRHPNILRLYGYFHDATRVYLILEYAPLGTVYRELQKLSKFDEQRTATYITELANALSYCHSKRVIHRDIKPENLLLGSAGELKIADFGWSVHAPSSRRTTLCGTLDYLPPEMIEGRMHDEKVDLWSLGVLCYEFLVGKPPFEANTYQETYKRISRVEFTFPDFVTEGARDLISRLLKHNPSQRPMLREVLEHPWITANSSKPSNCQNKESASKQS
In words: Inhibition of human recombinant AURKA by FRET assay.

For data set [1], the target named is Protein kinase C alpha type (Homo sapiens, UniProt P17252). In words: Inhibition of human recombinant PKCalpha by FRET assay.
In data set [2] the target is Glycogen synthase kinase-3 beta (Homo sapiens, UniProt P49841). In words: Inhibition of human recombinant GSK3beta by FRET assay.
Data set [3] concerns the target Casein kinase I isoform epsilon (Homo sapiens, UniProt P49674). Nature of the data set: Inhibition of human recombinant CK1epsilon by FRET assay.
Data set [4] deals with Glycogen synthase kinase-3 alpha (Homo sapiens, UniProt P49840). In words: Inhibition of human recombinant GSK3alpha by FRET assay.
In data set [5] the target is Cyclin-dependent kinase 5 (Homo sapiens, UniProt Q00535). In words: Inhibition of human recombinant Cdk5/p35 by FRET assay.
The species named for the next data set is Danio rerio. Nature of the data set: Toxicity in wild type zebra fish embryo up to 30 uM. The conditions noted are these: zebrafish, in vivo. It is filed as organism-based.

By IC50 is commonly meant the concentration needed to halve the response being measured.

Glycogen synthase kinase-3 alpha, sequence (P49840 whole entry): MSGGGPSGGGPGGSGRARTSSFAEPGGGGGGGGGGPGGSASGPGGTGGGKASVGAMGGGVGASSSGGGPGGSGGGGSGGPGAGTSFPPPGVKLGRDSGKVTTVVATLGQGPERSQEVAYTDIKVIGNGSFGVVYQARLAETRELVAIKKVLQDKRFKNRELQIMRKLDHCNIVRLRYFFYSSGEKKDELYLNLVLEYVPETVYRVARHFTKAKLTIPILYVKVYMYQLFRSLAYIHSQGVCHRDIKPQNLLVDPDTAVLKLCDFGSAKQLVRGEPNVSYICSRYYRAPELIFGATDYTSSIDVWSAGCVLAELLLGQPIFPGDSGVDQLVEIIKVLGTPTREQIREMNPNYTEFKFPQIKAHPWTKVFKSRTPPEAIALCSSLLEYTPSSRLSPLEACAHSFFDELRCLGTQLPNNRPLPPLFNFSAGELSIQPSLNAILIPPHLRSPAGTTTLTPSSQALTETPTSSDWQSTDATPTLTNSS
Glycogen synthase kinase-3 beta, sequence (P49841 whole entry, canonical isoform): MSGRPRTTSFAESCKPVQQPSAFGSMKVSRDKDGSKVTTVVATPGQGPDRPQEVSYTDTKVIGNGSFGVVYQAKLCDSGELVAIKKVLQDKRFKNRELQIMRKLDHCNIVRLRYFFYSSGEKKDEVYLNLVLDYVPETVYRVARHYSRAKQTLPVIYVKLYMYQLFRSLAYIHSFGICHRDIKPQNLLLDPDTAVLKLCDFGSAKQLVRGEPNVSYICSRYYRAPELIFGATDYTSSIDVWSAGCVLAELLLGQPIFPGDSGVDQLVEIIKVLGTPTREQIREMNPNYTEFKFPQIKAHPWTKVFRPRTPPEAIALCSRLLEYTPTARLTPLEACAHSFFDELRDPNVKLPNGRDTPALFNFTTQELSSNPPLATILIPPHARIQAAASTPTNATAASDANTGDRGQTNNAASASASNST
Casein kinase I isoform epsilon, sequence (P49674 whole entry, canonical isoform): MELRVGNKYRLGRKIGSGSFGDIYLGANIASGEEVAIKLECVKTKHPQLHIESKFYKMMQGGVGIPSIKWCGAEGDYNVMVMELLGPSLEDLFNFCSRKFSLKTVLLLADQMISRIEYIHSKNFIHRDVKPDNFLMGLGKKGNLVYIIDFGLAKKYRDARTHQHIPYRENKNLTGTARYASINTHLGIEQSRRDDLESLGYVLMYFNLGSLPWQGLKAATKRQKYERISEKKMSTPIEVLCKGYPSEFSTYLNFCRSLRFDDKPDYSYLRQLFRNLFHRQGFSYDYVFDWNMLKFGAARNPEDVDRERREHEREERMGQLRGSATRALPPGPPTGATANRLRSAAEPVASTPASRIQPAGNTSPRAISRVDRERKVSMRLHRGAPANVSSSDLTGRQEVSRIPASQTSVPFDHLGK
Cyclin-dependent kinase 5, sequence (Q00535 whole entry): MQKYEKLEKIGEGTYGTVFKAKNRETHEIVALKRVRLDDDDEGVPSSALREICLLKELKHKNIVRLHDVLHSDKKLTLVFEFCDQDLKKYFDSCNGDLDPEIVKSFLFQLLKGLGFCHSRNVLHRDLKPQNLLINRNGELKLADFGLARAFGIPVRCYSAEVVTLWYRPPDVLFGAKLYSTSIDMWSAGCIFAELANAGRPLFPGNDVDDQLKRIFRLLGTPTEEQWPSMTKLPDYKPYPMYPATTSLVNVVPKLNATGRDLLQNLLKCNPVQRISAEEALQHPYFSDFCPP

Consider `c1ccc(-c2ccc(CSc3nnc(-c4ccc5c(c4)OCCO5)o3)cc2)cc1`, for which the 50% inhibitory concentration (IC50) on Aurora kinase A is over 100 µM; in data set [1], over 100 µM; in data set [2], 0.234 µM; in data set [3], over 100 µM; in data set [4] it was 0.051 µM; in data set [5] it was over 100 µM.

As to `Fc1cc(F)cc(-c2ccc(CSc3nnc(-c4ccc5c(c4)OCO5)o3)cc2)c1`, the IC50 on Aurora kinase A is over 100 µM; in data set [1], over 100 µM; in data set [2], 0.195 µM; in data set [3], 80 µM; in data set [4], 0.051 µM; in data set [5] it was over 100 µM.

Regarding `O=[N+]([O-])c1ccccc1-c1ccc(CSc2nnc(-c3ccc4c(c3)OCCO4)o2)cc1`, the 50% inhibitory concentration (IC50) was over 100 µM on Aurora kinase A; over 100 µM in data set [1]; 0.09 µM in data set [2]; over 100 µM in data set [3]; 0.004 µM in data set [4]; over 100 µM in data set [5].

As for `c1ccc(-c2ccc(CSc3nnc(-c4ccncc4)o3)cc2)cc1`, the 50% inhibitory concentration (IC50) at Aurora kinase A was over 100 µM; in data set [1] it was over 100 µM; in data set [2], 0.083 µM; in data set [3], over 100 µM; in data set [4], 0.052 µM; in data set [5], over 100 µM.

In the case of `N#Cc1cccc(-c2ccc(CSc3nnc(-c4ccc5c(c4)OCO5)o3)cc2)c1`, the half-inhibitory concentration (IC50) on Aurora kinase A is over 100 µM; in data set [1] it was over 100 µM; in data set [2] it was 0.029 µM; in data set [3], over 100 µM; in data set [4], 0.004 µM; in data set [5], over 100 µM.

As for `COc1ccc(-c2ccc(CSc3nnc(-c4ccncc4)o3)cc2)cc1`, the IC50 was over 100 µM at Aurora kinase A; over 100 µM in data set [1]; 0.176 µM in data set [2]; over 100 µM in data set [3]; 0.24 µM in data set [4]; over 100 µM in data set [5].

Consider `CC(=O)Nc1cc(-c2nnc(SCc3ccccc3)o2)ccn1`, for which the half-maximal inhibitory concentration (IC50) was 60 µM at Aurora kinase A; over 100 µM in data set [1]; 0.035 µM in data set [2]; over 100 µM in data set [3]; 0.02 µM in data set [4]; over 100 µM in data set [5].

Turning to `N#Cc1cc(F)ccc1-c1ccc(CSc2nnc(-c3ccncc3)o2)cc1`, the IC50 at Aurora kinase A is over 100 µM; in data set [1] it was over 100 µM; in data set [2], 0.056 µM; in data set [3], over 100 µM; in data set [4] it was 0.324 µM; in data set [5], over 100 µM.

With `O=[N+]([O-])c1ccccc1-c1ccc(CSc2nnc(-c3ccc4c(c3)OCO4)o2)cc1`, the IC50 on Aurora kinase A was over 100 µM; in data set [1] it was over 100 µM; in data set [2] it was 0.027 µM; in data set [3], over 100 µM; in data set [4] it was 0.003 µM; in data set [5], over 100 µM.

Regarding `CC(=O)Nc1cc(-c2nnc(SCc3ccc(-c4ccccc4C#N)cc3)o2)ccn1`, the Activity entry in the data set listed under Danio rerio is “Non-toxic”. Also, the half-maximal inhibitory concentration (IC50) at Aurora kinase A was over 100 µM; in data set [1], over 100 µM; in data set [2] it was 0.017 µM; in data set [3] it was over 100 µM; in data set [4], 0.002 µM; in data set [5], over 100 µM.

For the compound `Fc1cc(F)cc(-c2ccc(CSc3nnc(-c4ccc5c(c4)OCCO5)o3)cc2)c1`, the half-maximal inhibitory concentration (IC50) is over 100 µM on Aurora kinase A; over 100 µM in data set [1]; 0.966 µM in data set [2]; over 100 µM in data set [3]; 0.035 µM in data set [4]; over 100 µM in data set [5].

Turning to `COc1ccc(-c2ccc(CSc3nnc(-c4ccc5c(c4)OCO5)o3)cc2)cc1`, the IC50 on Aurora kinase A is 40 µM; in data set [1], over 100 µM; in data set [2], 0.075 µM; in data set [3] it was 20 µM; in data set [4], 0.007 µM; in data set [5], over 100 µM.

For `N#Cc1ccc(-c2ccc(CSc3nnc(-c4ccc5c(c4)OCCO5)o3)cc2)cc1`, the half-maximal inhibitory concentration (IC50) was 50 µM on Aurora kinase A; over 100 µM in data set [1]; 2 µM in data set [2]; over 100 µM in data set [3]; 0.195 µM in data set [4]; over 100 µM in data set [5].

In the case of `O=[N+]([O-])c1ccccc1-c1ccc(CSc2nnc(-c3ccncc3)o2)cc1`, the IC50 was 5 µM at Aurora kinase A; over 100 µM in data set [1]; 0.164 µM in data set [2]; over 100 µM in data set [3]; 0.027 µM in data set [4]; over 100 µM in data set [5].

Turning to `O=[N+]([O-])c1cccc(-c2ccc(CSc3nnc(-c4ccc5c(c4)OCCO5)o3)cc2)c1`, the 50% inhibitory concentration (IC50) was over 100 µM at Aurora kinase A; over 100 µM in data set [1]; 0.164 µM in data set [2]; over 100 µM in data set [3]; 0.015 µM in data set [4]; over 100 µM in data set [5].

Turning to `N#Cc1cccc(-c2ccc(CSc3nnc(-c4ccc5c(c4)OCCO5)o3)cc2)c1`, the IC50 is over 100 µM at Aurora kinase A; over 100 µM in data set [1]; 0.225 µM in data set [2]; over 100 µM in data set [3]; 0.009 µM in data set [4]; over 100 µM in data set [5].

`CC(=O)Nc1cc(-c2nnc(SCc3cccc(C#N)c3)o2)ccn1`: the concentration for half-maximal inhibition (IC50) on Aurora kinase A is over 100 µM; in data set [1] it was over 100 µM; in data set [2], 0.019 µM; in data set [3], over 100 µM; in data set [4], 0.017 µM; in data set [5] it was over 100 µM.

On to `COc1ccc(-c2ccc(CSc3nnc(-c4ccc5c(c4)OCCO5)o3)cc2)c(C#N)c1`, for which the IC50 on Aurora kinase A is over 100 µM; in data set [1], over 100 µM; in data set [2], 0.032 µM; in data set [3], over 100 µM; in data set [4], 0.005 µM; in data set [5], over 100 µM.

As to `O=[N+]([O-])c1cccc(-c2ccc(CSc3nnc(-c4ccc5c(c4)OCO5)o3)cc2)c1`, the concentration for half-maximal inhibition (IC50) was over 100 µM at Aurora kinase A; over 100 µM in data set [1]; 0.086 µM in data set [2]; over 100 µM in data set [3]; 0.015 µM in data set [4]; over 100 µM in data set [5].

With `COc1ccc(-c2ccc(CSc3nnc(-c4ccc5c(c4)OCCO5)o3)cc2)cc1`, the IC50 is over 100 µM on Aurora kinase A; over 100 µM in data set [1]; 0.127 µM in data set [2]; over 100 µM in data set [3]; 0.019 µM in data set [4]; over 100 µM in data set [5].

Regarding `COc1ccc(-c2ccc(CSc3nnc(-c4ccc5c(c4)OCO5)o3)cc2)c(C#N)c1`, the Activity entry in the data set listed under Danio rerio is reported as “Non-toxic”. In addition, the concentration for half-maximal inhibition (IC50) is 45 µM at Aurora kinase A; over 100 µM in data set [1]; 0.014 µM in data set [2]; 50 µM in data set [3]; 0.005 µM in data set [4]; over 100 µM in data set [5].

As for `N#Cc1ccc(-c2ccc(CSc3nnc(-c4ccncc4)o3)cc2)cc1`, the IC50 is over 100 µM on Aurora kinase A; over 100 µM in data set [1]; 0.153 µM in data set [2]; over 100 µM in data set [3]; 0.077 µM in data set [4]; over 100 µM in data set [5].

Turning to `N#Cc1cccc(-c2ccc(CSc3nnc(-c4ccncc4)o3)cc2)c1`, the IC50 at Aurora kinase A was 60 µM; in data set [1] it was over 100 µM; in data set [2], 0.084 µM; in data set [3], over 100 µM; in data set [4], 0.046 µM; in data set [5], over 100 µM.
